According to US10770169B2, “Method of providing a treatment to a subject based on a dynamic pathway map” (THE REGENTS OF THE UNIVERSITY OF CALIFORNIA, priority 2010, dated 2020):
Where two headings read alike, the source gives them in different places.

Key:
[1] = system: panel of 55 breast cancer cell lines; test: Cell growth inhibition assay (Cell Titer Glo, 72 h, 9 doses; GI50, TGI, LC50); assay type: cell-based, human; conditions: Homo sapiens, read-out: GI50 (converted)
[2] = system: luminal, basal, claudin-low and ERBB2AMP breast cancer cell lines; test: Associations of clinically relevant subtypes and response (non-parametric ANOVA or t-test on GI50 ranks); assay type: cell-based, human
Summary of the method: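 Significance was set at FDR p<0.20 after combining p-values across three test sets. Subtype–response associations came from rank-based non-parametric ANOVA or t-tests on GI50. For three-class comparisons, post-hoc tests of each group against the rest identified the most sensitive group, with FDR correction.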

COc1cc([C@@H]2c3cc4c(cc3[C@@H](O[C@@H]3O[C@@H]5CO[C@@H](C)O[C@H]5[C@H](O)[C@H]3O)[C@H]3COC(=O)[C@H]23)OCO4)cc(OC)c1O [Etoposide]
GI50 ([1]; 600MPE cell line, censored GI50 values): 9.77 µM | GI50 ([1]; AU565, AU565 cell line, censored GI50 values): 0.676 µM | GI50 ([1]; AU565, cell line AU565): 0.676 µM | GI50 ([1]; BT-20, BT20 cell line, censored GI50 values): 3.31 µM | GI50 ([1]; BT-20, cell line BT20): 3.31 µM | GI50 ([1]; BT-474, BT474 cell line, censored GI50 values): 19.1 µM | GI50 ([1]; BT-474, cell line BT474): 19.1 µM | GI50 ([1]; BT-483, BT483 cell line, censored GI50 values): 4.27 µM | GI50 ([1]; BT-483, cell line BT483): 4.27 µM | GI50 ([1]; BT-549, BT549 cell line, censored GI50 values): 1.38 µM | GI50 ([1]; BT-549, cell line BT549): 1.38 µM | GI50 ([1]; CAMA-1, CAMA1 cell line, censored GI50 values): 5.01 µM | GI50 ([1]; CAMA-1, cell line CAMA1): 5.01 µM | GI50 ([1]; HCC38, HCC38 cell line, censored GI50 values): 0.295 µM | GI50 ([1]; HCC38, cell line HCC38): 0.295 µM | GI50 ([1]; HCC70, HCC70 cell line, censored GI50 values): 12.9 µM | GI50 ([1]; HCC70, cell line HCC70): 12.9 µM | GI50 ([1]; HCC202, HCC202 cell line, censored GI50 values): 0.933 µM | GI50 ([1]; HCC202, cell line HCC202): 0.933 µM | GI50 ([1]; HCC1143, HCC1143 cell line, censored GI50 values): 5.13 µM | GI50 ([1]; HCC1143, cell line HCC1143): 5.13 µM | GI50 ([1]; HCC1187, HCC1187 cell line, censored GI50 values): 0.692 µM | GI50 ([1]; HCC1187, cell line HCC1187): 0.692 µM | GI50 ([1]; HCC1395, HCC1395 cell line, censored GI50 values): 3.09 µM | GI50 ([1]; HCC1395, cell line HCC1395): 3.09 µM | GI50 ([1]; HCC1419, HCC1419 cell line, censored GI50 values): 70.8 µM | GI50 ([1]; HCC1419, cell line HCC1419): 70.8 µM | GI50 ([1]; HCC1428, HCC1428 cell line, censored GI50 values): 34.7 µM | GI50 ([1]; HCC1428, cell line HCC1428): 34.7 µM | GI50 ([1]; HCC1500, HCC1500 cell line, censored GI50 values): 1.41 µM | GI50 ([1]; HCC1500, cell line HCC1500): 1.41 µM | GI50 ([1]; HCC1806, HCC1806 cell line, censored GI50 values): 3.09 µM | GI50 ([1]; HCC1806, cell line HCC1806): 3.09 µM | GI50 ([1]; HCC1937, HCC1937 cell line, censored GI50 values): 4.57 µM | GI50 ([1]; HCC1937, cell line HCC1937): 4.57 µM | GI50 ([1]; HCC1954, HCC1954 cell line, censored GI50 values): 1 µM | GI50 ([1]; HCC1954, cell line HCC1954): 1 µM | GI50 ([1]; HCC2185 cell line, censored GI50 values): 7.76 µM | GI50 ([1]; HCC3153 cell line, censored GI50 values): 2.95 µM | GI50 ([1]; MCF7, MCF7 cell line, censored GI50 values): 11.2 µM | GI50 ([1]; MCF7, cell line MCF7): 11.2 µM | GI50 ([1]; MDA-MB-134-VI, MDAMB134VI cell line, censored GI50 values): 2.45 µM | GI50 ([1]; MDA-MB-157, MDAMB157 cell line, censored GI50 values): 0.955 µM | GI50 ([1]; MDA-MB-157, cell line MDAMB157): 0.955 µM | GI50 ([1]; MDA-MB-175-VII, MDAMB175VII cell line, censored GI50 values): 72.4 µM | GI50 ([1]; MDA-MB-231, MDAMB231 cell line, censored GI50 values): 2.04 µM | GI50 ([1]; MDA-MB-231, cell line MDAMB231): 2.04 µM | GI50 ([1]; MDA-MB-361, MDAMB361 cell line, censored GI50 values): 14.1 µM | GI50 ([1]; MDA-MB-361, cell line MDAMB361): 14.1 µM | GI50 ([1]; MDA-MB-415, MDAMB415 cell line, censored GI50 values): 13.8 µM | GI50 ([1]; MDA-MB-415, cell line MDAMB415): 13.8 µM | GI50 ([1]; MDA-MB-436, MDAMB436 cell line, censored GI50 values): 1 µM | GI50 ([1]; MDA-MB-436, cell line MDAMB436): 1 µM | GI50 ([1]; MDA-MB-453, MDAMB453 cell line, censored GI50 values): 5.01 µM | GI50 ([1]; MDA-MB-453, cell line MDAMB453): 5.01 µM | GI50 ([1]; MDA-MB-468, MDAMB468 cell line, censored GI50 values): 2.57 µM | GI50 ([1]; MDA-MB-468, cell line MDAMB468): 2.57 µM | GI50 ([1]; SK-BR-3, SKBR3 cell line, censored GI50 values): 1.2 µM | GI50 ([1]; SK-BR-3, cell line SKBR3): 1.2 µM | GI50 ([1]; SUM52PE, SUM52PE cell line, censored GI50 values): 2.57 µM | GI50 ([1]; SUM52PE, cell line SUM52PE): 2.57 µM | GI50 ([1]; SUM149PT, SUM149PT cell line, censored GI50 values): 2.63 µM | GI50 ([1]; SUM149PT, cell line SUM149PT): 2.63 µM | GI50 ([1]; SUM185PE, SUM185PE cell line, censored GI50 values): 4.9 µM | GI50 ([1]; SUM185PE, cell line SUM185PE): 4.9 µM | GI50 ([1]; SUM225CWN, SUM225CWN cell line, censored GI50 values): 10.2 µM | GI50 ([1]; SUM225CWN, cell line SUM225CWN): 10.2 µM | GI50 ([1]; SUM1315MO2, SUM1315MO2 cell line, censored GI50 values): 0.288 µM | GI50 ([1]; SUM-159-PT, SUM159PT cell line, censored GI50 values): 0.776 µM | GI50 ([1]; SUM-159-PT, cell line SUM159PT): 0.776 µM | GI50 ([1]; T47D, T47D cell line, censored GI50 values): 1.07 µM | GI50 ([1]; T47D, cell line T47D): 1.07 µM | GI50 ([1]; UACC-893, UACC893 cell line, censored GI50 values): 55 µM | GI50 ([1]; UACC-893, cell line UACC893): 55 µM | GI50 ([1]; ZR-75-1, ZR751 cell line, censored GI50 values): 2.09 µM | GI50 ([1]; ZR-75-1, cell line ZR751): 2.09 µM | GI50 ([1]; ZR-75B, ZR75B cell line, censored GI50 values): 0.871 µM | GI50 ([1]; ZR-75B, cell line ZR75B): 0.871 µM | GI50 ([1]; cell line 600MPE): 9.77 µM | GI50 ([1]; cell line HCC2185): 7.76 µM | GI50 ([1]; cell line HCC3153): 2.95 µM | GI50 ([1]; cell line MDAMB134V): 2.45 µM | GI50 ([1]; cell line MDAMB175V): 72.4 µM | GI50 ([1]; cell line SUM1315MO): 0.288 µM | subtype-specific response (sensitivity by transcriptional subtype) ([2]; GI50 across subtypes): preferential activity in basal and/or claudin-low cell lines | Subtype specificity ([2]; Table 6, most sensitive subtype, FDR p<0.20): Claudin-low
